Type in all cases: in vivo
Assay [1] relates to Bemisia tabaci. Description: Example B Bemisia tabaci test (cotton plants sprayed). The following applies: single active compound, 0.8 ppm. The method, then:
(§1) To prepare a suitable active compound preparation, 1 part by weight of active compound is mixed with the stated amounts of solvent and emulsifier, and the concentrate is diluted with emulsifier-comprising water to the desired concentration.
(§2) Cotton plants (Gossypium hirsutum) which are infested with whitefly (Bemisia tabaci) eggs, larvae and puparia are sprayed with the active compound preparation of the desired concentration.
(§3) After the desired period of time, the destruction is determined in %. In this context, 100% means that all of the whiteflies were destroyed; 0% means that no whiteflies were destroyed.

The next assay relates to Aphis gossypii. The assay can be described thus: Example A Aphis gossypii test (cotton leaves dipped). Particulars: single active compound, 0.8 ppm. How it is done: as §1
Cotton leaves (Gossypium hirsutum) which are severely infested with cotton aphids (Aphis gossypii) are treated by being dipped into the active compound preparation of the desired concentration.
(§4) After the desired period of time, the destruction is determined in %. In this context, 100% means that all of the aphids were destroyed; 0% means that no aphids were destroyed.

For assay [2], the system named is Heliothis armigera. The assay can be described thus: Example C Heliothis armigera test (soya bean shoots dipped). The following applies: single active compound, 4 ppm. How it is done:
as §1
Soya bean shoots (Glycine max) are treated by being dipped into the active compound preparation of the desired concentration and populated with Heliothis armigera caterpillars while the leaves are still damp.
(§5) After the desired period of time, the destruction is determined in %. In this context, 100% means that all of the caterpillars were destroyed; 0% means that no caterpillars were destroyed.

In assay [3] the test system is Spodoptera exigua. Description: Example N Spodoptera exigua test (cabbage leaves dipped). The following applies: single active compound, 20 ppm. The method, then: as §1
(§6) Cabbage leaves (Brassica oleracea) are treated by being dipped into the active compound preparation of the desired concentration and populated with army worm caterpillars (Spodoptera exigua) while the leaves are still moist.
as §5

Assay [4] relates to Myzus persicae. Description: Example M Myzus persicae test (cabbage leaves dipped). The following applies: single active compound, 0.16 ppm. The method, then: as §1
(§7) Cabbage leaves (Brassica oleracea) which are severely infested with green peach aphids (Myzus persicae) are treated by being dipped into the active compound preparation of the desired concentration.
as §4

The test system of assay [5] is Myzus persicae. The assay can be described thus: Example D Myzus persicae test (cabbage leaves dipped). The following applies: single active compound, 0.8 ppm. How it is done: as §1, §7, §4
Assay [6] relates to Bemisia tabaci. The assay can be described thus: Example K Bemisia tabaci test (cotton plants sprayed). Particulars: single active compound, 0.16 ppm. The method, then:
as §1, §2, §3

For assay [7], the system named is Heliothis armigera. Description: Example L Heliothis armigera test (soya bean shoots dipped). The following applies: single active compound, 4 ppm. The method, then:
as §1
Soya bean shoots (Glycine max) are treated by being dipped into the active compound preparation of the desired concentration and populated with Heliothis armigera caterpillars while the leaves are still moist.
as §5

Assay [8] deals with Plutella xylostella (normal strain). Description: Example E Plutella xylostella test (normal strain). Particulars: single active compound, 20 ppm. How it is done: as §1
Cabbage leaves (Brassica oleracea) are treated by being dipped into the active compound preparation of the desired concentration and populated with diamondback moth caterpillars (Plutella xylostella/sensitive strain) while the leaves are still moist.
as §5

The subject of assay [9] is Myzus persicae. The assay can be described thus: Example G Myzus test (cabbage leaves dipped). Particulars: single active compound, 0.16 ppm. How it is done:
as §1, §7, §4

Assay [10] deals with Spodoptera exigua. The assay can be described thus: Example I Spodoptera exigua test (cabbage leaves dipped). The following applies: single active compound, 100 ppm. How it is done: as §1, §6, §5
Assay [11] deals with Plutella xylostella/normal strain. The assay can be described thus: Example H Plutella test (normal strain). Particulars: single active compound. How it is done: as §1
Cabbage leaves (Brassica oleracea) are treated by being dipped into the active compound preparation of the desired concentration and populated with diamondback moth caterpillars (Plutella xylostella/normal strain) while the leaves are still moist.
as §5

In assay [12] the test system is Heliothis armigera. The assay can be described thus: Example F Heliothis armigera test (soya bean shoots dipped). The following applies: single active compound. How it is done:
as §1
Soya bean shoots (glycine max) are treated by being dipped into the active compound preparation of the desired concentration and populated with Heliothis armigera caterpillars while the leaves are still moist.
as §5

The next assay relates to Spodoptera frugiperda. Description: Example J Spodoptera frugiperda test (cabbage leaves dipped). Particulars: single active compound, 0.8 ppm. The method, then: as §1
Cabbage leaves (Brassica oleracea) are treated by being dipped into the active compound preparation of the desired concentration and populated with army worm caterpillars (Spodoptera frugiperda) while the leaves are still moist.
as §5

For the compound `CN/C(=N\[N+](=O)[O-])NCc1cnc(Cl)s1` [Clothianidin, clothianidin], in the assay on Bemisia tabaci [1], the “Destruction in % after 12 d” value came to 35%. The “Destruction in % after 6 d” value in the assay on Aphis gossypii is 0%; in the assay with Heliothis armigera [2] it was 45%; with Spodoptera exigua [3], 10%; with Myzus persicae [4], 0%; in the assay on Myzus persicae [5], 65%; in the assay with Heliothis armigera [7], 0%. The “Destruction in % after 6 d” value in assay [8] was 60%. Besides, the “Destruction in % after 10 d” value with Bemisia tabaci [6] was 5%.
On to `O=[N+]([O-])/N=C1\NCCN1Cc1ccc(Cl)nc1` [Imidacloprid, imidacloprid], for which the “Destruction in % after 6 d” value was determined as 10% in the assay on Myzus persicae [9], 10% in the assay with Spodoptera exigua [3], 50% with Myzus persicae [4] and 10% with Heliothis armigera [7]. The “Destruction in % after 7 d” value in the assay on Spodoptera exigua [10] came to 45%; in assay [11] (20 ppm), 15%; with Heliothis armigera [12] (4 ppm), 10%; in the assay with Spodoptera frugiperda, 20%. In addition, the “Destruction in % after 10 d” value in the assay with Bemisia tabaci [6] came to 5%.
Regarding `N#C/N=C1\SCCN1Cc1ccc(Cl)nc1` [Thiacloprid, thiacloprid], in the assay with Bemisia tabaci [1], the “Destruction in % after 12 d” value came to 80%. Moreover, the “Destruction in % after 6 d” value in the assay with Aphis gossypii is 25%; with Heliothis armigera [2], 35%; with Myzus persicae [9], 10%; in the assay with Myzus persicae [5], 20%; in [8], 15%. Besides, the “Destruction in % after 7 d” value in the assay with Spodoptera exigua [10] came to 0%; in assay [11] (4 ppm), 0%; in the assay with Heliothis armigera [12] (0.8 ppm), 0%; with Spodoptera frugiperda it was 10%.
